Measured values: patent US20220160703A1, “TUMOR-SELECTIVE COMBINATION THERAPY” (The Board of Regents of The University of Texas System, priority 2019, published 2022)

Experiments:
[1] = test system: NQO1 positive tumor cell lines MC38, TC-1 and Ag104Ld; type: cell-based
Protocol: (FIG. 1A) NQO1 positive tumor cell lines MC38, TC-1 and Ag104Ld and NQO1 negative cell lines Panc02 and B16 grown in 48-well plates were treated with β-lap (0-8 μM) for a 3 hr followed by washing and replacing medium. Cell viability was determined by Sulforhodamine B (SRB) Assay 4 days later. […] (FIG. 1C) MC38 cells with CRISPR-based NQO1 Knockout (MC38 NQO1KO #5) planted in 96-well plates were exposed to β-lap for 3 hr and cell survival was assessed 48 hr later. […] (FIG. 1E) MC38 cells were exposed to a lethal dose of β-lap (4 μM) for indicated times, then stained with 7-AAD and Annexin V followed by flow cytometry analysis. […] (FIG. 1H) MC38 and B16 NQO1 #1 cells were exposed to β-lap for a 3 hr. Catalase (1000 U/ml) was added and cell survival was assessed 48 hr later. (FIG. 1I) C57BL/6 mice (n=5/group) were transplanted with MC38 cells and treated with β-lap (0.03 mg, 0.1 mg or 0.3 mg, intratumorally; or 25 mg/kg, i.v.) every other day for four times. […] Tumor growth was monitored twice a week.
(FIG. 8A) NQO1 expression in multiple murine tumor lines was immunoblotted as indicated. […] Drugs were removed and survival assessed 5 days later. (FIG. 8C) Relative H2O2 levels were assessed in various cells treated with β-lap for 3 h at the indicated doses using CellRox-Glo. […] (FIG. 8D) TC-1 cells exposure to β-lap for 12 h, later PARP-1 and Caspase-3 levels were analyzed by western blotting assay. […]
(FIGS. 14A-C) NQO1 cells MC38 (A) and TC-1 (B) and NQO1^− cells B16 (C) were treated for 2 h with various doses of IB-DNQ±DIC (50 μM). Drugs were removed and survival assessed 6 days later. […] (FIGS. 14E-F) Relative NAD^+ (E) or ATP (F) levels were assessed in TC-1 cells exposed to various doses of IB-DNQ for 2 h. […] Comet tail lengths in a.u. were monitored at indicated time; and DSBs quantified by γH2AX foci/nuclei using immunofluorescence at indicated time (FIG. 14H). […]
(FIG. 21A) Viability of murine cell lines following IB-DNQ treatment for 4 h. […] (FIGS. 21D-E) DNA double strand break was assessed via comet assay (FIG. 21D) and γH2AX foci/nuclei immunofluorescence (FIG. 21E). […]

IFNα/β = assay: Type I IFN and cytokine expression in tumor tissue (ELISA, PCR); type: in vivo, mice; conditions: MC38-OVA, β-lap 0.3 mg i.t. two times, six days later
Protocol: FIGS. 19A-C (related to FIGS. 4A-F). TLR4/MyD88 pathway but not TLR9 signaling is required for the antitumor effect of β-lap. (FIGS. 19A-B) MC38-OVA bearing mice were treated with β-lap (0.3 mg, i.t.) for two times. Six days later, tumor tissues were collected for both single cell digestion (FIG. 19A) and RNA extraction (FIG. 19B). (FIG. 19A) The secreted IFNβ from the suspended cell supernatant was measured by ELISA after a 24 hr culture. (FIG. 19B) The mRNA levels of IFNα1, IFNγ, TNFα and CXCL10 were determined by real-time PCR assay. (FIG. 19C) MC38 cells were implanted into Myd88^−/−, Tlr4^−/− and Tlr9^−/− C57BL/6 mice, respectively. Tumor bearing mice were then treated with β-lap (0.3 mg, i.t.) every other day for four times. Tumor growth was monitored twice a week. Data are shown as mean±SEM. *P<0.05, **P<0.01, ***P<0.001 determined by unpaired t-test. FIGS. 25A-E. IB-DNQ induces tumor ICD and dendritic cell-mediated T cell cross-priming. (FIG. 25A) The levels of HMGB1 released into cell culture supernatant after IB-DNQ treatment. MC38, MC38 NOQ1^−/−, B16, and B16 NOQ1^+ cells were treated with IB-DNQ for 4 h followed by replacing medium and growth for 24 h, culture supernatant was collected and HMGB1 levels were determined by ELISA. (FIGS. 25B-C) Relative expression of IFN-α and IFN-β. […]

With CC1(C)CCC2=C(O1)c1ccccc1C(=O)C2=O [β-lap, β-lapachone] the “response to 3 h β-lap exposure (cell viability)” value ([1]; β-lap 0-8 μM, 3 hr, SRB 4 days later) was “sensitive”, the cell killing ([1]; β-lap 3 h ± DIC 50 μM, survival 5 days later) was “selectively killed” and the “IFNα/β, CXCL10, IFNγ and TNFα in treated tumors” value (IFNα/β) was “upregulated”.
